What was measured:
Assay in all cases: relative viability (nuclei count vs DMSO), 5 days (fraction); higher = more cells survive
SGI-1776 + Vorinostat = compound: CN1CCC(CNc2ccc3ncc(-c4cccc(OC(F)(F)F)c4)n3n2)CC1 [SGI-1776] + O=C(CCCCCCC(=O)Nc1ccccc1)NO [Vorinostat] (partner 1 µM)
Summary of the method: (§1)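 After 5 days of treatment, lung cancer cells in 1536-well plates were fixed and stained in a single step (final 0.05% Triton X-100, 1% formaldehyde, 1 ug/ml Hoechst) and their nuclei counted on 4× images. Treatment had been applied by pin tool the day after seeding as one drug alone or as a fixed anchor-drug dose with five library-drug doses (not always all listed) in √10 steps. Relative viability is the nuclei count of treated wells divided by that of vehicle wells, and values are medians of duplicate plates.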

SGI-1776 + Palbociclib = compound: CN1CCC(CNc2ccc3ncc(-c4cccc(OC(F)(F)F)c4)n3n2)CC1 [SGI-1776] + CC(=O)c1c(C)c2cnc(Nc3ccc(N4CCNCC4)cn3)nc2n(C2CCCC2)c1=O [Palbociclib] (partner 0.5 µM)
Summary of the method: as §1

Entinostat + Linsitinib = compound: Nc1ccccc1NC(=O)c1ccc(CNC(=O)OCc2cccnc2)cc1 [Entinostat] + C[C@]1(O)C[C@@H](c2nc(-c3ccc4ccc(-c5ccccc5)nc4c3)c3c(N)nccn32)C1 [Linsitinib] (partner 1 µM)
Summary of the method: as §1

SGI-1776 + Linsitinib = compound: CN1CCC(CNc2ccc3ncc(-c4cccc(OC(F)(F)F)c4)n3n2)CC1 [SGI-1776] + C[C@]1(O)C[C@@H](c2nc(-c3ccc4ccc(-c5ccccc5)nc4c3)c3c(N)nccn32)C1 [Linsitinib] (partner 1 µM)
Summary of the method: as §1

## NCI-H2170
SGI-1776 + Vorinostat; first compound 0.08 µM
  relative viability: 0.83
SGI-1776 + Vorinostat; first compound 0.8 µM
  relative viability: 0.825
SGI-1776 + Vorinostat; first compound 2.53 µM
  relative viability: 0.853
SGI-1776 + Vorinostat; first compound 8 µM
  relative viability: 0.76
SGI-1776 + Palbociclib; first compound 0.08 µM
  relative viability: 0.376
SGI-1776 + Palbociclib; first compound 0.8 µM
  relative viability: 0.349
SGI-1776 + Palbociclib; first compound 2.53 µM
  relative viability: 0.408
SGI-1776 + Palbociclib; first compound 8 µM
  relative viability: 0.364

## HCC-366
SGI-1776 + Vorinostat; first compound 0.08 µM
  relative viability: 0.462
SGI-1776 + Vorinostat; first compound 0.8 µM
  relative viability: 0.418
SGI-1776 + Vorinostat; first compound 2.53 µM
  relative viability: 0.392
SGI-1776 + Vorinostat; first compound 8 µM
  relative viability: 0.266
Entinostat + Linsitinib; first compound 0.02 µM
  relative viability: 0.859
Entinostat + Linsitinib; first compound 0.06325 µM
  relative viability: 0.758
Entinostat + Linsitinib; first compound 0.2 µM
  relative viability: 0.461
Entinostat + Linsitinib; first compound 0.6325 µM
  relative viability: 0.175
Entinostat + Linsitinib; first compound 2 µM
  relative viability: 0.0447
SGI-1776 + Linsitinib; first compound 0.08 µM
  relative viability: 0.731
SGI-1776 + Linsitinib; first compound 0.8 µM
  relative viability: 0.697
SGI-1776 + Linsitinib; first compound 2.53 µM
  relative viability: 0.633
SGI-1776 + Linsitinib; first compound 8 µM
  relative viability: 0.413
SGI-1776 + Palbociclib; first compound 0.08 µM
  relative viability: 0.395
SGI-1776 + Palbociclib; first compound 0.8 µM
  relative viability: 0.476
SGI-1776 + Palbociclib; first compound 2.53 µM
  relative viability: 0.368
SGI-1776 + Palbociclib; first compound 8 µM
  relative viability: 0.33

## NCI-H2405
SGI-1776 + Vorinostat; first compound 0.08 µM
  relative viability: 1.06
SGI-1776 + Vorinostat; first compound 0.8 µM
  relative viability: 1.16
SGI-1776 + Vorinostat; first compound 2.53 µM
  relative viability: 0.896
SGI-1776 + Vorinostat; first compound 8 µM
  relative viability: 0.748
Entinostat + Linsitinib; first compound 0.02 µM
  relative viability: 0.977
Entinostat + Linsitinib; first compound 0.06325 µM
  relative viability: 1.11
Entinostat + Linsitinib; first compound 0.2 µM
  relative viability: 1.04
Entinostat + Linsitinib; first compound 0.6325 µM
  relative viability: 0.896
Entinostat + Linsitinib; first compound 2 µM
  relative viability: 0.789
SGI-1776 + Linsitinib; first compound 0.08 µM
  relative viability: 0.899
SGI-1776 + Linsitinib; first compound 0.8 µM
  relative viability: 0.873
SGI-1776 + Linsitinib; first compound 2.53 µM
  relative viability: 0.854
SGI-1776 + Linsitinib; first compound 8 µM
  relative viability: 0.588
SGI-1776 + Palbociclib; first compound 0.08 µM
  relative viability: 0.553
SGI-1776 + Palbociclib; first compound 0.8 µM
  relative viability: 0.516
SGI-1776 + Palbociclib; first compound 2.53 µM
  relative viability: 0.484
SGI-1776 + Palbociclib; first compound 8 µM
  relative viability: 0.44

## COR-L 105
SGI-1776 + Vorinostat; first compound 0.08 µM
  relative viability: 0.921
SGI-1776 + Vorinostat; first compound 0.8 µM
  relative viability: 0.885
SGI-1776 + Vorinostat; first compound 2.53 µM
  relative viability: 0.935
SGI-1776 + Vorinostat; first compound 8 µM
  relative viability: 0.642
Entinostat + Linsitinib; first compound 0.02 µM
  relative viability: 1.01
Entinostat + Linsitinib; first compound 0.06325 µM
  relative viability: 0.974
Entinostat + Linsitinib; first compound 0.2 µM
  relative viability: 0.876
Entinostat + Linsitinib; first compound 0.6325 µM
  relative viability: 0.491
Entinostat + Linsitinib; first compound 2 µM
  relative viability: 0.341
SGI-1776 + Linsitinib; first compound 0.08 µM
  relative viability: 1.1
SGI-1776 + Linsitinib; first compound 0.8 µM
  relative viability: 0.927
SGI-1776 + Linsitinib; first compound 2.53 µM
  relative viability: 0.874
SGI-1776 + Linsitinib; first compound 8 µM
  relative viability: 0.717
SGI-1776 + Palbociclib; first compound 0.08 µM
  relative viability: 0.477
SGI-1776 + Palbociclib; first compound 0.8 µM
  relative viability: 0.388
SGI-1776 + Palbociclib; first compound 2.53 µM
  relative viability: 0.396
SGI-1776 + Palbociclib; first compound 8 µM
  relative viability: 0.355

## 201T
SGI-1776 + Vorinostat; first compound 0.08 µM
  relative viability: 0.977
SGI-1776 + Vorinostat; first compound 0.8 µM
  relative viability: 1.01
SGI-1776 + Vorinostat; first compound 2.53 µM
  relative viability: 0.98
SGI-1776 + Vorinostat; first compound 8 µM
  relative viability: 0.946
Entinostat + Linsitinib; first compound 0.02 µM
  relative viability: 1.1
Entinostat + Linsitinib; first compound 0.06325 µM
  relative viability: 1.13
Entinostat + Linsitinib; first compound 0.2 µM
  relative viability: 1.09
Entinostat + Linsitinib; first compound 0.6325 µM
  relative viability: 0.902
Entinostat + Linsitinib; first compound 2 µM
  relative viability: 0.617
SGI-1776 + Linsitinib; first compound 0.08 µM
  relative viability: 1.05
SGI-1776 + Linsitinib; first compound 0.8 µM
  relative viability: 1.01
SGI-1776 + Linsitinib; first compound 2.53 µM
  relative viability: 0.968
SGI-1776 + Linsitinib; first compound 8 µM
  relative viability: 0.87
SGI-1776 + Palbociclib; first compound 0.08 µM
  relative viability: 0.36
SGI-1776 + Palbociclib; first compound 0.8 µM
  relative viability: 0.346
SGI-1776 + Palbociclib; first compound 2.53 µM
  relative viability: 0.342
SGI-1776 + Palbociclib; first compound 8 µM
  relative viability: 0.327

## NCI-H2228
SGI-1776 + Vorinostat; first compound 0.08 µM
  relative viability: 0.613
SGI-1776 + Vorinostat; first compound 0.8 µM
  relative viability: 0.884
SGI-1776 + Vorinostat; first compound 2.53 µM
  relative viability: 0.679
SGI-1776 + Vorinostat; first compound 8 µM
  relative viability: 0.429
Entinostat + Linsitinib; first compound 0.02 µM
  relative viability: 0.587
Entinostat + Linsitinib; first compound 0.06325 µM
  relative viability: 0.635
Entinostat + Linsitinib; first compound 0.2 µM
  relative viability: 0.578
Entinostat + Linsitinib; first compound 0.6325 µM
  relative viability: 0.365
Entinostat + Linsitinib; first compound 2 µM
  relative viability: 0.354
SGI-1776 + Linsitinib; first compound 0.08 µM
  relative viability: 0.881
SGI-1776 + Linsitinib; first compound 0.8 µM
  relative viability: 0.541
SGI-1776 + Linsitinib; first compound 2.53 µM
  relative viability: 0.557
SGI-1776 + Linsitinib; first compound 8 µM
  relative viability: 0.276
SGI-1776 + Palbociclib; first compound 0.08 µM
  relative viability: 0.787
SGI-1776 + Palbociclib; first compound 0.8 µM
  relative viability: 1.1
SGI-1776 + Palbociclib; first compound 2.53 µM
  relative viability: 0.715
SGI-1776 + Palbociclib; first compound 8 µM
  relative viability: 0.537

## LCLC-103H
SGI-1776 + Vorinostat; first compound 0.08 µM
  relative viability: 0.839
SGI-1776 + Vorinostat; first compound 0.8 µM
  relative viability: 0.862
SGI-1776 + Vorinostat; first compound 2.53 µM
  relative viability: 0.832
SGI-1776 + Vorinostat; first compound 8 µM
  relative viability: 0.652
Entinostat + Linsitinib; first compound 0.02 µM
  relative viability: 1.07
Entinostat + Linsitinib; first compound 0.06325 µM
  relative viability: 1.12
Entinostat + Linsitinib; first compound 0.2 µM
  relative viability: 0.937
Entinostat + Linsitinib; first compound 0.6325 µM
  relative viability: 0.931
Entinostat + Linsitinib; first compound 2 µM
  relative viability: 0.715
SGI-1776 + Linsitinib; first compound 0.08 µM
  relative viability: 1.07
SGI-1776 + Linsitinib; first compound 0.8 µM
  relative viability: 0.972
SGI-1776 + Linsitinib; first compound 2.53 µM
  relative viability: 1.1
SGI-1776 + Linsitinib; first compound 8 µM
  relative viability: 0.979
SGI-1776 + Palbociclib; first compound 0.08 µM
  relative viability: 0.524
SGI-1776 + Palbociclib; first compound 0.8 µM
  relative viability: 0.456
SGI-1776 + Palbociclib; first compound 2.53 µM
  relative viability: 0.475
SGI-1776 + Palbociclib; first compound 8 µM
  relative viability: 0.401

## NCI-H2087
SGI-1776 + Vorinostat; first compound 0.08 µM
  relative viability: 0.927
SGI-1776 + Vorinostat; first compound 0.8 µM
  relative viability: 0.783
SGI-1776 + Vorinostat; first compound 2.53 µM
  relative viability: 0.443
SGI-1776 + Vorinostat; first compound 8 µM
  relative viability: 0.773
Entinostat + Linsitinib; first compound 0.02 µM
  relative viability: 0.815
Entinostat + Linsitinib; first compound 0.06325 µM
  relative viability: 0.733
Entinostat + Linsitinib; first compound 0.2 µM
  relative viability: 0.779
Entinostat + Linsitinib; first compound 0.6325 µM
  relative viability: 0.559
Entinostat + Linsitinib; first compound 2 µM
  relative viability: 0.481
SGI-1776 + Linsitinib; first compound 0.08 µM
  relative viability: 0.913
SGI-1776 + Linsitinib; first compound 0.8 µM
  relative viability: 0.863
SGI-1776 + Linsitinib; first compound 2.53 µM
  relative viability: 1.09
SGI-1776 + Linsitinib; first compound 8 µM
  relative viability: 1.12
SGI-1776 + Palbociclib; first compound 0.08 µM
  relative viability: 0.299
SGI-1776 + Palbociclib; first compound 0.8 µM
  relative viability: 0.231
SGI-1776 + Palbociclib; first compound 2.53 µM
  relative viability: 0.293
SGI-1776 + Palbociclib; first compound 8 µM
  relative viability: 0.204

From the supplement of paper PMC10307832
